# In the supplement of paper PMC10307832:
# What was measured:
# Assay in all cases: relative viability (nuclei count vs DMSO), 5 days (fraction); higher = more cells survive
# VE-821 + Alpelisib = compound: CS(=O)(=O)c1ccc(-c2cnc(N)c(C(=O)Nc3ccccc3)n2)cc1 [VE-821] + Cc1nc(NC(=O)N2CCC[C@H]2C(N)=O)sc1-c1ccnc(C(C)(C)C(F)(F)F)c1 [Alpelisib] (partner 2 µM)
# Summary of the method: (§1)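 Each reported value is a median over duplicate plates. It expresses relative viability: treated-well nuclei count divided by vehicle-well nuclei count. Lung cancer cell lines in 1536-well plates were dosed by pin tool a day after seeding, alone with one drug or with a fixed anchor-drug dose plus five library-drug doses (not always all listed) in √10 steps, and nuclei were counted after 5 days.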
# VE-821 + Olaparib = compound: CS(=O)(=O)c1ccc(-c2cnc(N)c(C(=O)Nc3ccccc3)n2)cc1 [VE-821] + O=C(c1cc(Cc2n[nH]c(=O)c3ccccc23)ccc1F)N1CCN(C(=O)C2CC2)CC1 [Olaparib] (partner 8 µM)
# Summary of the method: as §1
# Vismodegib + Trametinib = compound: CS(=O)(=O)c1ccc(C(=O)Nc2ccc(Cl)c(-c3ccccn3)c2)c(Cl)c1 [Vismodegib] + CC(=O)Nc1cccc(-n2c(=O)n(C3CC3)c(=O)c3c(Nc4ccc(I)cc4F)n(C)c(=O)c(C)c32)c1 [Trametinib] (partner 0.02 µM)
# Summary of the method: as §1
# Vismodegib + Lapatinib = compound: CS(=O)(=O)c1ccc(C(=O)Nc2ccc(Cl)c(-c3ccccn3)c2)c(Cl)c1 [Vismodegib] + CS(=O)(=O)CCNCc1ccc(-c2ccc3ncnc(Nc4ccc(OCc5cccc(F)c5)c(Cl)c4)c3c2)o1 [Lapatinib] (partner 2 µM)
# Summary of the method: as §1
Cell Line,relative viability (VE-821 + Alpelisib; first compound 0.08 µM),relative viability (VE-821 + Alpelisib; first compound 0.253 µM),relative viability (VE-821 + Alpelisib; first compound 0.8 µM),relative viability (VE-821 + Alpelisib; first compound 2.53 µM),relative viability (VE-821 + Alpelisib; first compound 8 µM),relative viability (VE-821 + Olaparib; first compound 0.08 µM),relative viability (VE-821 + Olaparib; first compound 0.253 µM),relative viability (VE-821 + Olaparib; first compound 0.8 µM),relative viability (VE-821 + Olaparib; first compound 2.53 µM),relative viability (VE-821 + Olaparib; first compound 8 µM),relative viability (Vismodegib + Trametinib; first compound 0.08 µM),relative viability (Vismodegib + Trametinib; first compound 0.253 µM),relative viability (Vismodegib + Trametinib; first compound 0.8 µM),relative viability (Vismodegib + Trametinib; first compound 2.53 µM),relative viability (Vismodegib + Trametinib; first compound 8 µM),relative viability (Vismodegib + Lapatinib; first compound 0.08 µM),relative viability (Vismodegib + Lapatinib; first compound 0.253 µM),relative viability (Vismodegib + Lapatinib; first compound 0.8 µM),relative viability (Vismodegib + Lapatinib; first compound 2.53 µM),relative viability (Vismodegib + Lapatinib; first compound 8 µM)
NCI-H2023,0.748,0.588,0.295,0.547,0.372,0.576,0.4,0.222,0.169,0.0964,0.568,0.538,0.605,0.47,0.498,0.426,0.871,0.738,0.76,0.935
NCI-H2085,1,0.853,0.713,0.984,0.922,0.774,0.747,0.844,–,0.694,0.551,0.549,0.594,0.621,0.539,0.764,0.809,0.71,0.751,0.81
NCI-H2087,1.18,0.945,1.4,1.06,1.06,0.784,0.64,0.67,0.583,0.462,0.199,0.183,0.166,0.172,0.213,0.872,0.856,1.12,1.07,0.863
NCI-H2126,0.757,0.744,0.625,0.747,0.645,1.01,0.907,0.969,0.927,0.682,0.558,0.519,0.568,0.58,0.565,0.725,0.746,0.701,0.616,0.729
NCI-H2170,0.979,0.808,0.624,0.777,0.543,0.656,0.487,0.395,0.276,0.21,0.89,0.897,1,0.857,0.987,0.258,0.271,0.26,0.307,0.28
NCI-H2228,0.7,0.825,0.683,0.687,0.737,0.506,0.625,0.641,0.534,0.222,0.368,0.42,0.484,0.417,0.585,1.16,1.19,1.03,1.05,1.02
NCI-H2347,1.08,0.997,0.916,1.18,0.977,0.574,0.531,0.598,0.618,0.635,0.311,0.286,0.265,0.301,0.288,0.962,0.989,0.901,0.808,0.938
NCI-H2405,0.908,0.808,0.67,0.984,0.573,0.937,0.828,0.846,0.997,0.805,0.671,0.616,0.592,0.598,0.638,–,1.09,0.937,0.913,1.11
NCI-H3122,0.949,0.746,0.774,0.871,0.78,0.622,0.495,0.432,0.378,0.221,0.247,0.254,0.216,0.247,0.202,0.987,1.06,0.982,0.897,0.936
PC-3 [JPC-3],1.05,0.957,1.02,1.05,1.04,1.19,1.15,1.24,1.12,0.958,0.695,0.713,0.636,0.615,0.729,0.486,0.467,0.394,0.447,0.475
PC-14,1.08,0.863,0.981,0.931,0.936,0.292,0.282,0.167,0.137,0.097,0.606,0.65,0.694,0.659,0.796,0.273,0.338,0.29,0.337,0.337
RERF-LC-KJ,0.898,0.774,0.664,0.799,0.712,0.946,0.819,0.851,0.698,0.49,0.847,0.823,0.84,0.826,0.862,0.902,0.848,0.762,0.817,0.826
SK-LU-1,1.02,0.964,0.803,0.499,0.328,0.51,0.497,0.462,0.401,0.324,0.441,0.473,0.54,0.441,0.444,0.769,0.887,0.991,0.776,0.884
SK-MES-1,1.03,0.847,0.776,0.954,0.866,0.885,0.747,0.638,0.531,0.243,0.574,0.504,0.553,0.558,0.545,0.498,0.475,0.404,0.484,0.499
SW 1573,1.07,0.713,0.745,0.888,0.774,0.533,0.516,0.418,0.269,0.21,0.571,0.522,0.609,0.548,0.552,0.974,1.08,1.14,0.959,1.18
